The results in this text go back to PubChem BioAssay AID1671358.

This experiment concerns the target Serine/threonine-protein kinase PLK3 (Homo sapiens) (UniProt Q9H4B4). The experiment in a line: inhibition of PLK3 peptide phosphorylation – biochemical, Z'-LYTE FRET, direct format, human, dose response (AID 1671358). As to conditions: Z'-LYTE FRET kinase assay.

Broadly, the IC50 is the point on the concentration scale where inhibition reaches its midpoint.

Sequence of Serine/threonine-protein kinase PLK3 (Homo sapiens) (Q9H4B4 whole entry, looked up): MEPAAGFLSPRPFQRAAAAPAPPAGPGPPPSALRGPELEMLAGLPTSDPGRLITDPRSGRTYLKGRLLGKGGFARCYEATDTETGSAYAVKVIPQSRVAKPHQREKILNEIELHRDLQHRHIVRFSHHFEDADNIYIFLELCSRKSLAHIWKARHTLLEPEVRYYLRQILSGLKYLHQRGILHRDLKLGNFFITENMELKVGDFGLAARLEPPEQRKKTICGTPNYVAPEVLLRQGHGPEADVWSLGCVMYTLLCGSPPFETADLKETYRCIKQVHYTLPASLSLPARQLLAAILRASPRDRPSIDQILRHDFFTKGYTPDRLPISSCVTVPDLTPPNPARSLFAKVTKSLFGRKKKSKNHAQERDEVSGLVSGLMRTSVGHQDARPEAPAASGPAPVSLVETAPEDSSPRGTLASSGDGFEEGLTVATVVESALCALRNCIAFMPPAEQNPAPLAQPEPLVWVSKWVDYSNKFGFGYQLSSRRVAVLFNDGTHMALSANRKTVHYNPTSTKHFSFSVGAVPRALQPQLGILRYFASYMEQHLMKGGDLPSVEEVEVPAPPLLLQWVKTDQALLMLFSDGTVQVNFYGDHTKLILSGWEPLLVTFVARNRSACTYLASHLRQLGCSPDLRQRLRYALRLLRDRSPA

Turning to `Brc1c(Br)c(Br)c2n[nH]nc2c1Br`, the IC50 was 1850 nM.
